Assay results as given in patent publication US5057493A, “Novel antibiotics R106” (priority 1988, dated 1991).
Starred links: 1 amine or outer side, 2 acyl side, 3 side chain; linkers in the order of their positions; H or OH if unused. Non-standard residues stand in square brackets, D forms with d. Residues, ends and D or L forms follow the SMILES beside them. ξ: configuration not given here. X2 = CN(C(C(=O)[*:2])C(O)c1ccccc1)[*:1]; ξNMeVal(3-OH) = CNC(C(=O)O)C(C)(C)O; NMeF = CN[CH](Cc1ccccc1)C(=O)O; X1 = CCC(C)C(O[*:1])C(=O)[*:2]; NMeV = CN[CH](C(=O)O)C(C)C; Hiv = CC(C)[CH](O)C(=O)O

Tests used:
[1] = system: Candida albicans TIMM 0171; assay: MIC by agar dilution method, casitone agar; assay type: cell-based; settings: Table 5
Description: (§1) The antibiotics R106 of the present invention are active against various fungi including pathogenic fungi. The minimum inhibitory concentration (MIC) of each antibiotic against various fungi was determined by the agar dilution method using casitone agar medium (2.0% glucose, 0.9% bacto-casitone, 1.0% yeast extract, 0.1% KH2 PO4, 0.1% Na2 HPO4, 1.0% sodium citrate, 2.0% agar: concentrations are all by w/v).

[2] = system: Candida albicans TIMM 1768; assay: MIC by agar dilution method, casitone agar; assay type: cell-based; settings: Table 5
Description: as §1

Candida kefyr TIMM 0301 = assay: MIC by agar dilution method, casitone agar; assay type: cell-based; settings: Table 5
Description: as §1

[3] = system: Candida albicans TIMM 0136; assay: MIC by agar dilution method, casitone agar; assay type: cell-based; settings: Table 5
Description: as §1

[4] = system: Candida glabrata TIMM 1062; assay: MIC by agar dilution method, casitone agar; assay type: cell-based; settings: Table 5
Description: as §1, with “The” for “The antibiotics R106 of the present invention are active against various fungi including pathogenic fungi. The”
(§2) Each minimum growth inhibitory concentration was determined after culturing at 27° C. for 4 days.

[5] = system: Cryptococcus neoformans TIMM 0354; assay: MIC by agar dilution method, casitone agar; assay type: cell-based; settings: Table 5
Description: as §1, with “The” for “The antibiotics R106 of the present invention are active against various fungi including pathogenic fungi. The”
as §2

[6] = 50% lethal dose (LD50) in mice; assay type: in vivo
Source text: All of the antibiotics R106 show low toxicity. The results of 50% lethal dose (LD50) obtained when each of representative compounds of the present invention was given to mice intravenously, intraperitoneally and orally are shown in Table 7.

## CCC(C)C1NC(=O)C2CCCN2C(=O)C(Cc2ccccc2)N(C)C(=O)C(Cc2ccccc2)NC(=O)C(C(C)C)N(C)C(=O)C(C(C)C)OC(=O)C(C(C)(C)O)N(C)C(=O)C(CC(C)C)NC(=O)C(C(C)C)N(C)C1=O (stereo not drawn) [Compound 2] (cyclo([ξNMeVal(3-OH)][Hiv][NMeV]F[NMeF]PI[NMeV]L); configuration not given here)
[1]
  minimum inhibitory concentration (MIC): 0.10
[2]
  minimum inhibitory concentration (MIC): 0.78
Candida kefyr TIMM 0301
  minimum inhibitory concentration (MIC): 0.20
[3]
  minimum inhibitory concentration (MIC): 0.10
[4]
  minimum inhibitory concentration (MIC): 0.20
[5]
  minimum inhibitory concentration (MIC): 1.56
[6]; i.p.
  LD50: > 200 mg/kg
[6]; i.v.
  LD50: > 100 mg/kg
[6]; p.o.
  LD50: > 200 mg/kg

## CCC(C)C1NC(=O)C2CCCN2C(=O)C(C(O)c2ccccc2)N(C)C(=O)C(Cc2ccccc2)NC(=O)C(C(C)C)N(C)C(=O)C(C(C)CC)OC(=O)C(C(C)(C)O)N(C)C(=O)C(CC(C)C)NC(=O)C(C(C)C)N(C)C1=O (stereo not drawn) [Compound 5] (cyclo([X2]PI[NMeV]L[ξNMeVal(3-OH)][X1][NMeV]F); configuration not given here)
[1]
  minimum inhibitory concentration (MIC): ≤ 0.05
[2]
  minimum inhibitory concentration (MIC): ≤ 0.05
Candida kefyr TIMM 0301
  minimum inhibitory concentration (MIC): 0.20
[3]
  minimum inhibitory concentration (MIC): ≤ 0.05
[4]
  minimum inhibitory concentration (MIC): 0.20
[5]
  minimum inhibitory concentration (MIC): 3.12
[6]; i.p.
  LD50: > 200 mg/kg
[6]; i.v.
  LD50: > 100 mg/kg
[6]; p.o.
  LD50: > 200 mg/kg
